{"source": "patent US11746116B2", "about": "“Antibiotic resistance breakers” (KING'S COLLEGE LONDON, priority 2017, dated 2023)", "key": {"[1]": {"target": "Safetyscreen44 off target panel (Homo sapiens, UniProt P34972)"}, "[2]": {"tested_on": "Safetyscreen44 off target panel"}, "[3]": {"target": "Safetyscreen44 off target panel (Homo sapiens, UniProt P04150)", "sequence (P04150 whole entry)": "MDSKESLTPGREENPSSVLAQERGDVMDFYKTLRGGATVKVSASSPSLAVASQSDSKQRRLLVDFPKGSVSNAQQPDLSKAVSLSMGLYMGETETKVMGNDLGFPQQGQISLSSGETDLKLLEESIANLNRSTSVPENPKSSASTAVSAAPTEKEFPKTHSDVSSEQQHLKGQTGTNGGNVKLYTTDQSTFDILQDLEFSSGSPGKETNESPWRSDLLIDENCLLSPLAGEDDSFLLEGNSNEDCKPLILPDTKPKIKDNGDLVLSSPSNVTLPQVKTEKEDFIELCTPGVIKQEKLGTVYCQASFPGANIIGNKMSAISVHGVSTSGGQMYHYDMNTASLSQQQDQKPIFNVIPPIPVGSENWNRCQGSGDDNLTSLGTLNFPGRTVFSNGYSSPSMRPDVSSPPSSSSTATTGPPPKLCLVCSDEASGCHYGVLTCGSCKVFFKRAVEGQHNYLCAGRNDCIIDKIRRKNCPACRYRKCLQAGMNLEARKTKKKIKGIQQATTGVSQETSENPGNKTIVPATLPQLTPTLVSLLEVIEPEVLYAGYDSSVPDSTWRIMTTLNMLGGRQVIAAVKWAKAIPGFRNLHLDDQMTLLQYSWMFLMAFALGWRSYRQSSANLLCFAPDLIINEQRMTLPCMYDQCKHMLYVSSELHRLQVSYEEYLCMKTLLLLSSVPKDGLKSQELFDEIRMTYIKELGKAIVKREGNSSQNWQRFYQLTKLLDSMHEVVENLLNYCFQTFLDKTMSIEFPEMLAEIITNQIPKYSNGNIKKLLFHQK"}, "[4]": {"target": "Safetyscreen44 off target panel (Homo sapiens, UniProt P46098)", "sequence (P46098 24-478)": "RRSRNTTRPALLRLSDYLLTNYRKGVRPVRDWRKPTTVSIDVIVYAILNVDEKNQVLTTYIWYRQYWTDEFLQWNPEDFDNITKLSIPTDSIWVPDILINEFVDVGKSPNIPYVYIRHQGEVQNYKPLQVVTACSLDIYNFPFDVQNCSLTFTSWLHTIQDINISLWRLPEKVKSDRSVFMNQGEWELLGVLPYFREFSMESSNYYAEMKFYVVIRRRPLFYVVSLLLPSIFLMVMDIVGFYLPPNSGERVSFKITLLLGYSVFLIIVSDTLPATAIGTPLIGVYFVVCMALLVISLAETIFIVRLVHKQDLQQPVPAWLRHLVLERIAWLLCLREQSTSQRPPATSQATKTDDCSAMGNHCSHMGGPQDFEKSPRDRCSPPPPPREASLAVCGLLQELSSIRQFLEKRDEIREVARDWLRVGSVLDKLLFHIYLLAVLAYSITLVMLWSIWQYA"}, "[5]": {"target": "Safetyscreen44 off target panel (Homo sapiens, UniProt P25021)", "sequence (P25021 whole entry)": "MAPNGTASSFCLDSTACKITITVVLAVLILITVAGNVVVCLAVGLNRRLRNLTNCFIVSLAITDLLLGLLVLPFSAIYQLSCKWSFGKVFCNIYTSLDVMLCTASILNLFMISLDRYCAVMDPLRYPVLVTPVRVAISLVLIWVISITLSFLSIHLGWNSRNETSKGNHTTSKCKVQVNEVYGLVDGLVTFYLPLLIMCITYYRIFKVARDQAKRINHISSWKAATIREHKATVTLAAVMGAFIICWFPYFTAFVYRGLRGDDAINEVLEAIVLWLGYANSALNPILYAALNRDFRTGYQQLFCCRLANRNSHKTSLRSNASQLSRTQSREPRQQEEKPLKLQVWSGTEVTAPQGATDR"}, "[6]": {"target": "Safetyscreen44 off target panel (Rattus norvegicus, UniProt P28564)", "sequence (P28564 whole entry)": "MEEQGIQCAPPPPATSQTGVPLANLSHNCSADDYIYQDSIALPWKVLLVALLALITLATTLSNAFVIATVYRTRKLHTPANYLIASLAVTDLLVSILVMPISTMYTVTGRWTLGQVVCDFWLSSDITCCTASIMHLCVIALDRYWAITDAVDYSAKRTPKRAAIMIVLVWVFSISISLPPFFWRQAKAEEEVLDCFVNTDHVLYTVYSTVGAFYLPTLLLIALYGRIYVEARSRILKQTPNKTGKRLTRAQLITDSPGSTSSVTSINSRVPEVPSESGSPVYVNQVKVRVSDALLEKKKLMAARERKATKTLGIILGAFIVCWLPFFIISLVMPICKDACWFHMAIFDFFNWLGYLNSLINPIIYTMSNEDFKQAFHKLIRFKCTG"}, "[7]": {"target": "Safetyscreen44 off target panel (Homo sapiens, UniProt P41143)"}, "[8]": {"target": "Safetyscreen44 off target panel (Rattus norvegicus, UniProt P21396)", "sequence (P21396 whole entry)": "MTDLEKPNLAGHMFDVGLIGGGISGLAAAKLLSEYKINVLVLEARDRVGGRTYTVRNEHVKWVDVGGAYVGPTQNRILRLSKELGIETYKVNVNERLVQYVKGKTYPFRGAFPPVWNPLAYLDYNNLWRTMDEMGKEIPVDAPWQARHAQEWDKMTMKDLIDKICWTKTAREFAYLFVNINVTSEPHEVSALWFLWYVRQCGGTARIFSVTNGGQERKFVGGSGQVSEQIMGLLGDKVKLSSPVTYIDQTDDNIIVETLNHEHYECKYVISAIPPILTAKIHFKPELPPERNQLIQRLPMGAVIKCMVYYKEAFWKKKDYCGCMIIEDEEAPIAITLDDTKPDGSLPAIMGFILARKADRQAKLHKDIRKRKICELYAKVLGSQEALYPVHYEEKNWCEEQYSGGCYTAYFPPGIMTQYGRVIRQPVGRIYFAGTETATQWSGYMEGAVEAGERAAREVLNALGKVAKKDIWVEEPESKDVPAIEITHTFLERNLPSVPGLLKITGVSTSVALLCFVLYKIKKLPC"}, "[9]": {"target": "Safetyscreen44 off target panel (Homo sapiens, UniProt P07550)", "sequence (P07550 whole entry)": "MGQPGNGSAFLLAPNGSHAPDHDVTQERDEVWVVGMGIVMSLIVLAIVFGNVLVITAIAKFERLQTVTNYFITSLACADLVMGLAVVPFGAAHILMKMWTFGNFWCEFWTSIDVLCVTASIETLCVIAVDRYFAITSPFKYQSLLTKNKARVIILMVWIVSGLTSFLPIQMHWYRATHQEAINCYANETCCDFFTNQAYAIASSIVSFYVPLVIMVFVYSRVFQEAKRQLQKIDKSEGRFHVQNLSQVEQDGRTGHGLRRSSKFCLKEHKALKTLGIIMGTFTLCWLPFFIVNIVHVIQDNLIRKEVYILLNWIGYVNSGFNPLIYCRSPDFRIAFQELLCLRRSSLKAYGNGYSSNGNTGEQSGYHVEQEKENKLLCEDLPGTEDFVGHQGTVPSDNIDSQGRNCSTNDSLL"}, "[10]": {"target": "Safetyscreen44 off target panel (Homo sapiens, UniProt P20309)", "sequence (P20309 whole entry)": "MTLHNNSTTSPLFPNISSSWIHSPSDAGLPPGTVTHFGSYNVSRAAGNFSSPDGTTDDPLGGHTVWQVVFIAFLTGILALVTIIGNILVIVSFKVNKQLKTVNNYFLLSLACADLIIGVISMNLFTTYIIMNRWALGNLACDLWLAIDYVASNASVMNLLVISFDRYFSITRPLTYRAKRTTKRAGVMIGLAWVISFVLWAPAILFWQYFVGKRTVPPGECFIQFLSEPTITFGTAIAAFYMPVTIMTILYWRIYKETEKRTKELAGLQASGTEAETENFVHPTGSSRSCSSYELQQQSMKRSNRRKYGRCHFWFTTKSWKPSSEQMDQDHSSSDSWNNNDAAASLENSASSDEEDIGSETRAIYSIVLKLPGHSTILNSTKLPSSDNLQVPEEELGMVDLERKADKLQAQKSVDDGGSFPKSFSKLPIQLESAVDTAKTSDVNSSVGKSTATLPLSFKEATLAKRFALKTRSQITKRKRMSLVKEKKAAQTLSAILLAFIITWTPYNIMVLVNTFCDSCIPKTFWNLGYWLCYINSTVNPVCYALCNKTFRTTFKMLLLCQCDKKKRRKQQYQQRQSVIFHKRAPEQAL"}, "[11]": {"target": "Safetyscreen44 off target panel (Homo sapiens, UniProt P25101)", "sequence (P25101 21-427)": "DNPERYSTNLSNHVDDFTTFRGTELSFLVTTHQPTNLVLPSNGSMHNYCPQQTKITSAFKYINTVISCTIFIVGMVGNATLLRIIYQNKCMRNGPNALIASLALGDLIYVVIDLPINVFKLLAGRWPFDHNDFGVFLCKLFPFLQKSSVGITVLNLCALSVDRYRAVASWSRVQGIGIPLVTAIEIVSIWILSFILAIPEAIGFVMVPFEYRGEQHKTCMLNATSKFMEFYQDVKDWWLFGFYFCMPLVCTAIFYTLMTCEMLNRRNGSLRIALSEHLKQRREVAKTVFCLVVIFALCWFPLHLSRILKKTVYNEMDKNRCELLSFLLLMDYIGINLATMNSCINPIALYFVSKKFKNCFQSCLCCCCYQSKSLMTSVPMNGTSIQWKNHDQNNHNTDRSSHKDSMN"}, "[12]": {"target": "Safetyscreen44 off target panel (Homo sapiens, UniProt P35354)"}, "[13]": {"target": "Safetyscreen44 off target panel (Homo sapiens, UniProt P23975)"}, "[14]": {"target": "Safetyscreen44 off target panel (Homo sapiens, UniProt Q01959)"}, "[15]": {"target": "Safetyscreen44 off target panel (Homo sapiens, UniProt P29274)", "sequence (P29274 whole entry)": "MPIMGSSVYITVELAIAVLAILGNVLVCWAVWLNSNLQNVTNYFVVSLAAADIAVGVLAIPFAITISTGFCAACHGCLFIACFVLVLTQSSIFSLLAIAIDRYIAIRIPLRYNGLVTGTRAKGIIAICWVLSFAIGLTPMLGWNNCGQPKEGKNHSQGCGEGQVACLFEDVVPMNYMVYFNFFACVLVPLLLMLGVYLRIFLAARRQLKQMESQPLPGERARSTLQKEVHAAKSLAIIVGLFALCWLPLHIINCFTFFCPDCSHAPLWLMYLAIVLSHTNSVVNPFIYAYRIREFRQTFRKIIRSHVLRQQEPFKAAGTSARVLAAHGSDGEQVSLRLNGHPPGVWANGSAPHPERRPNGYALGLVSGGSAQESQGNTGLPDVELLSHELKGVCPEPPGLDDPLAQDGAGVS"}, "[16]": {"target": "Safetyscreen44 off target panel (Rattus norvegicus, UniProt P34975)"}, "[17]": {"target": "Safetyscreen44 off target panel (Homo sapiens, UniProt P32238)", "sequence (P32238 whole entry)": "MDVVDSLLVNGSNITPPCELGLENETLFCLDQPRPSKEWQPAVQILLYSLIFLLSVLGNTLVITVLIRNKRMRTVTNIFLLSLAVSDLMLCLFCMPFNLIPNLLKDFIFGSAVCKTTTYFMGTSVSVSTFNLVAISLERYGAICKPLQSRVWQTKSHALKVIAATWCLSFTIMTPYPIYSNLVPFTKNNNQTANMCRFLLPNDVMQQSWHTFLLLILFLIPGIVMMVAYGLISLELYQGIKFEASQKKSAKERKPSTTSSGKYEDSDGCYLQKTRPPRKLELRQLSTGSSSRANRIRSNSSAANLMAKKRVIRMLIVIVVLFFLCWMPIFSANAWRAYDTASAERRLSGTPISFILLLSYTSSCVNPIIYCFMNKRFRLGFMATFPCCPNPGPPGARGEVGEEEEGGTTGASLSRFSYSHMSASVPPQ"}}}
{"smiles": "C[C@H]1COc2c(N3CC[C@@H](Nc4ncccn4)C3)c(F)cc3c(=O)c(C(=O)O)cn1c23", "note": "[KSN-82-L22]", "values": [{"measurement": "% inhibition, CB2 (h) (agonist radioligand)", "setting": "[1]", "value": 0, "unit": "%"}, {"measurement": "% inhibition, BZD (central) (agonist radioligand)", "setting": "[2]", "value": "−44.8289", "unit": "%"}, {"measurement": "% inhibition, Ca2+ channel (L, dihydropyridine site) (antagonist radioligand)", "setting": "[2]", "value": 6.049, "unit": "%"}, {"measurement": "% inhibition, D2S (h) (agonist radioligand)", "setting": "[2]", "value": "−7.807", "unit": "%"}, {"measurement": "% inhibition, NMDA (antagonist radioligand)", "setting": "[2]", "value": 12.6124, "unit": "%"}, {"measurement": "% inhibition, Na+ channel (site 2) (antagonist radioligand)", "setting": "[2]", "value": 23.6539, "unit": "%"}, {"measurement": "% inhibition, PDE4D2 (h)", "setting": "[2]", "value": 14.8003, "unit": "%"}, {"measurement": "% inhibition, alpha 1A (h) (antagonist radioligand)", "setting": "[2]", "value": 11.5312, "unit": "%"}, {"measurement": "% inhibition, GR (h) (agonist radioligand)", "setting": "[3]", "value": 3.456, "unit": "%"}, {"measurement": "% inhibition, 5-HT3 (h) (antagonist radioligand)", "setting": "[4]", "value": "−4.708", "unit": "%"}, {"measurement": "% inhibition, H2 (h) (antagonist radioligand)", "setting": "[5]", "value": "−40.1709", "unit": "%"}, {"measurement": "% inhibition, 5-HT1B (antagonist radioligand)", "setting": "[6]", "value": "−16.7063", "unit": "%"}, {"measurement": "% inhibition, delta (DOP) (h) (agonist radioligand)", "setting": "[7]", "value": 2.159, "unit": "%"}, {"measurement": "% inhibition, MAO-A (antagonist radioligand)", "setting": "[8]", "value": "−9.13", "unit": "%"}, {"measurement": "% inhibition, beta 2 (h) (antagonist radioligand)", "setting": "[9]", "value": 11.3086, "unit": "%"}, {"measurement": "% inhibition, M3 (h) (antagonist radioligand)", "setting": "[10]", "value": 2.273, "unit": "%"}, {"measurement": "% inhibition, ETA (h) (agonist radioligand)", "setting": "[11]", "value": "−5.236", "unit": "%"}, {"measurement": "% inhibition, COX2(h)", "setting": "[12]", "value": 8.111, "unit": "%"}, {"measurement": "% inhibition, norepinephrine transporter (h) (antagonist radioligand)", "setting": "[13]", "value": "−6.471", "unit": "%"}, {"measurement": "% inhibition, dopamine transporter (h) (antagonist radioligand)", "setting": "[14]", "value": 10.0257, "unit": "%"}, {"measurement": "% inhibition, A2A (h) (agonist radioligand)", "setting": "[15]", "value": 53.628, "unit": "%"}, {"measurement": "% inhibition, kappa (KOP) (agonist radioligand)", "setting": "[16]", "value": 27.3513, "unit": "%"}, {"measurement": "% inhibition, CCK1 (CCKA) (h) (agonist radioligand)", "setting": "[17]", "value": "−2.038", "unit": "%"}]}
